According to ChEMBL document CHEMBL3885861, “Open TG-GATES”:

Organism: Rattus norvegicus
Experiment: Open TG-GATES - Regimen: Daily Repeat
Type: toxicity, organism-based, Sprague-Dawley
Design: regimen Daily Repeat, gender Male, age 6 weeks
Settings: in vivo, po, 100 mg/kg, route gavage, dose level Low; for APTT / Bas / Eos / Fbg / Hb / Ht / Lym / MCH / MCHC / MCV / Mono / Neu / PT / Plat / RBC / Ret / WBC: tissue Blood; for KIDNEY_L / KIDNEY_R / KIDNEY_TOTAL: tissue Kidney; for LIVER: tissue Liver; for A/G / ALP / ALT / AST / BUN / CRE / Ca / Cl / DBIL / GLC / IP / K / LDH / Na / PL / RALB / TBIL / TC / TG / TP / gamma-GTP: tissue Plasma

CC[C@@H](CO)NCCN[C@@H](CC)CO [ETHAMBUTOL]
TERMINAL_BW (72 h, time 3 day): 243.1 g
APTT (72 h, time 3 day): 21.1 s
Bas (72 h, time 3 day): 0%
Eos (72 h, time 3 day): 1%
Fbg (72 h, time 3 day): 341.6 mg/dL
Hb (72 h, time 3 day): 13.4 g/dL
Ht (72 h, time 3 day): 38.6%
Lym (72 h, time 3 day): 80.4%
MCH (72 h, time 3 day): 21.4 pg
MCHC (72 h, time 3 day): 34.9%
MCV (72 h, time 3 day): 61.5 fL
Mono (72 h, time 3 day): 3%
Neu (72 h, time 3 day): 14.2%
PT (72 h, time 3 day): 15.8 s
Plat (72 h, time 3 day): 123.9 x10_4/uL
RBC (72 h, time 3 day): 627.8 x10_4/ul
Ret (72 h, time 3 day): 6.4%
WBC (72 h, time 3 day): 92.5 x10_2/uL
KIDNEY_L (72 h, time 3 day): 1.1 g
KIDNEY_R (72 h, time 3 day): 1 g
KIDNEY_TOTAL (72 h, time 3 day): 2.1 g
LIVER (72 h, time 3 day): 12 g
A/G (72 h, time 3 day): 1.2
ALP (72 h, time 3 day): 1628.8 IU/L
ALT (72 h, time 3 day): 45.2 IU/L
AST (72 h, time 3 day): 72.4 IU/L
BUN (72 h, time 3 day): 17.4 mg/dL
CRE (72 h, time 3 day): 0.2 mg/dL
Ca (72 h, time 3 day): 10.8 mg/dL
Cl (72 h, time 3 day): 107 meq/L
DBIL (72 h, time 3 day): 0 mg/dL
GLC (72 h, time 3 day): 187 mg/dL
IP (72 h, time 3 day): 7.2 mg/dL
K (72 h, time 3 day): 4.1 meq/L
LDH (72 h, time 3 day): 158.4 IU/L
Na (72 h, time 3 day): 140.8 meq/L
PL (72 h, time 3 day): 156.4 mg/dL
RALB (72 h, time 3 day): 3.1 g/dL
TBIL (72 h, time 3 day): 0.016 mg/dL
TC (72 h, time 3 day): 82.2 mg/dL
TG (72 h, time 3 day): 117.8 mg/dL
TP (72 h, time 3 day): 5.6 g/dL
gamma-GTP (72 h, time 3 day): 1.6 IU/L
TERMINAL_BW ([…], time 7 day): 272 g
TERMINAL_BW ([…], time 14 day): 312.5 g
TERMINAL_BW ([…], time 28 day): 351.2 g
APTT ([…], time 7 day): 22.4 s
Bas ([…], time 7 day): 0%
Eos ([…], time 7 day): 0.8%
Fbg ([…], time 7 day): 340.4 mg/dL
Hb ([…], time 7 day): 13.9 g/dL
Ht ([…], time 7 day): 40.1%
Lym ([…], time 7 day): 80.6%
MCH ([…], time 7 day): 21.4 pg
MCHC ([…], time 7 day): 34.6%
MCV ([…], time 7 day): 62 fL
Mono ([…], time 7 day): 2.6%
Neu ([…], time 7 day): 14.8%
PT ([…], time 7 day): 15.8 s
Plat ([…], time 7 day): 125.3 x10_4/uL
RBC ([…], time 7 day): 646.8 x10_4/ul
Ret ([…], time 7 day): 5.9%
WBC ([…], time 7 day): 109.9 x10_2/uL
APTT ([…], time 14 day): 22.7 s
Bas ([…], time 14 day): 0%
Eos ([…], time 14 day): 1.2%
Fbg ([…], time 14 day): 318.2 mg/dL
Hb ([…], time 14 day): 14 g/dL
Ht ([…], time 14 day): 40.9%
Lym ([…], time 14 day): 80%
MCH ([…], time 14 day): 20.5 pg
MCHC ([…], time 14 day): 34.2%
MCV ([…], time 14 day): 60 fL
Mono ([…], time 14 day): 2.6%
Neu ([…], time 14 day): 15%
PT ([…], time 14 day): 16.9 s
Plat ([…], time 14 day): 110.4 x10_4/uL
RBC ([…], time 14 day): 681.8 x10_4/ul
Ret ([…], time 14 day): 4.5%
WBC ([…], time 14 day): 127.4 x10_2/uL
APTT ([…], time 28 day): 23.2 s
Bas ([…], time 28 day): 0%
Eos ([…], time 28 day): 1%
Fbg ([…], time 28 day): 288.8 mg/dL
Hb ([…], time 28 day): 14.5 g/dL
Ht ([…], time 28 day): 41.9%
Lym ([…], time 28 day): 81.2%
MCH ([…], time 28 day): 18.3 pg
MCHC ([…], time 28 day): 34.7%
MCV ([…], time 28 day): 52.9 fL
Mono ([…], time 28 day): 2%
Neu ([…], time 28 day): 14%
PT ([…], time 28 day): 16.6 s
Plat ([…], time 28 day): 94.5 x10_4/uL
RBC ([…], time 28 day): 792.8 x10_4/ul
Ret ([…], time 28 day): 2.6%
WBC ([…], time 28 day): 137.8 x10_2/uL
KIDNEY_L ([…], time 7 day): 1.1 g
KIDNEY_R ([…], time 7 day): 1.1 g
KIDNEY_TOTAL ([…], time 7 day): 2.3 g
KIDNEY_L ([…], time 14 day): 1.3 g
KIDNEY_R ([…], time 14 day): 1.3 g
KIDNEY_TOTAL ([…], time 14 day): 2.6 g
KIDNEY_L ([…], time 28 day): 1.3 g
KIDNEY_R ([…], time 28 day): 1.4 g
KIDNEY_TOTAL ([…], time 28 day): 2.7 g
LIVER ([…], time 7 day): 13.7 g
LIVER ([…], time 14 day): 14.2 g
LIVER ([…], time 28 day): 15.1 g
A/G ([…], time 7 day): 1.1
ALP ([…], time 7 day): 1577.2 IU/L
ALT ([…], time 7 day): 42.2 IU/L
AST ([…], time 7 day): 67.2 IU/L
BUN ([…], time 7 day): 18.2 mg/dL
CRE ([…], time 7 day): 0.2 mg/dL
Ca ([…], time 7 day): 10.4 mg/dL
Cl ([…], time 7 day): 106.6 meq/L
DBIL ([…], time 7 day): 0 mg/dL
GLC ([…], time 7 day): 185.4 mg/dL
IP ([…], time 7 day): 7.6 mg/dL
K ([…], time 7 day): 4 meq/L
LDH ([…], time 7 day): 154.6 IU/L
Na ([…], time 7 day): 141.8 meq/L
PL ([…], time 7 day): 147.6 mg/dL
RALB ([…], time 7 day): 3 g/dL
TBIL ([…], time 7 day): 0.01 mg/dL
TC ([…], time 7 day): 74.8 mg/dL
TG ([…], time 7 day): 113.6 mg/dL
TP ([…], time 7 day): 5.8 g/dL
gamma-GTP ([…], time 7 day): 2.4 IU/L
A/G ([…], time 14 day): 1.2
ALP ([…], time 14 day): 1502.6 IU/L
ALT ([…], time 14 day): 47.4 IU/L
AST ([…], time 14 day): 75.2 IU/L
BUN ([…], time 14 day): 19.6 mg/dL
CRE ([…], time 14 day): 0.2 mg/dL
Ca ([…], time 14 day): 10.3 mg/dL
Cl ([…], time 14 day): 106.4 meq/L
DBIL ([…], time 14 day): 0 mg/dL
GLC ([…], time 14 day): 195.4 mg/dL
IP ([…], time 14 day): 6.8 mg/dL
K ([…], time 14 day): 4.1 meq/L
LDH ([…], time 14 day): 144.6 IU/L
Na ([…], time 14 day): 141 meq/L
PL ([…], time 14 day): 132.8 mg/dL
RALB ([…], time 14 day): 3 g/dL
TBIL ([…], time 14 day): 0.014 mg/dL
TC ([…], time 14 day): 67 mg/dL
TG ([…], time 14 day): 81 mg/dL
TP ([…], time 14 day): 5.5 g/dL
gamma-GTP ([…], time 14 day): 2 IU/L
A/G ([…], time 28 day): 1.1
ALP ([…], time 28 day): 1233.8 IU/L
ALT ([…], time 28 day): 47.4 IU/L
AST ([…], time 28 day): 77 IU/L
BUN ([…], time 28 day): 20.8 mg/dL
CRE ([…], time 28 day): 0.2 mg/dL
Ca ([…], time 28 day): 9.8 mg/dL
Cl ([…], time 28 day): 106.4 meq/L
DBIL ([…], time 28 day): 0 mg/dL
GLC ([…], time 28 day): 195.6 mg/dL
IP ([…], time 28 day): 6 mg/dL
K ([…], time 28 day): 3.9 meq/L
LDH ([…], time 28 day): 143.6 IU/L
Na ([…], time 28 day): 141.8 meq/L
PL ([…], time 28 day): 133 mg/dL
RALB ([…], time 28 day): 2.9 g/dL
TBIL ([…], time 28 day): 0.026 mg/dL
TC ([…], time 28 day): 76.8 mg/dL
TG ([…], time 28 day): 62.4 mg/dL
TP ([…], time 28 day): 5.7 g/dL
gamma-GTP ([…], time 28 day): 1.8 IU/L
